Read-outs that look alike come from different tables or passages of the source.
Columns and labels:
[1] = system: ex vivo calcium ionophore-stimulated LTB4 production in whole blood; test: Murine arachidonic acid-induced inflammation model: ex vivo stimulated LTB4 production in blood; design: species or system Balb/c mice; conditions: Mus musculus; 30 mg/kg oral gavage; blood diluted 1:1, A23187 stimulated ex vivo; percent inhibition of LTB4 production; read-out: % Inh. LTB4
Procedure: (§1) Assay 3: Murine Arachidonic Acid-Induced Inflammation Model
(§2) LTA4H inhibitor compounds of the present invention were dissolved in 20% cyclodextran/H2O at a concentration of 3 mg/mL. The solutions were administered by oral gavage to female Balb/c mice weighing approximately 20 grams each (0.2 mL per mouse, 30 mg of LTA4H inhibitor compound per kg). Sixty minutes after being administered an LTA4 inhibitor, each mouse received topical application of 20 μL of arachidonic acid (100 mg/mL in acetone) to the left ear and 20 μL of acetone only to the right ear. After 3 h, the mice were sacrificed, blood was withdrawn in heparinized syringes, and 8 mm ear biopsies were taken. Ear biopsies were weighed to determine edema and then frozen at −80° C. until needed for determination of neutrophil influx.
The microtiter plate contents were incubated for 30 min at 37° C. in a humidified incubator. The reaction was terminated by centrifugation (833×g, 10 min at 4° C.). Supernatants were analyzed for LTB4 by a commercially available enzyme-linked immunoassay (Cayman Chemical Co.) in accordance with the manufacturer's instructions. The percent inhibition of ex vivo stimulated LTB4 production (% Inh. LTB4) was determined by comparison to animals treated identically except that the solution administered by oral gavage was devoid of inhibitor compound.

[2] = system: LTB4 production in murine blood (LTA4H); test: LTB4 production by calcium ionophore-stimulated murine blood for LTA4H inhibitor activity; type: cell-based, CD-1 mice; conditions: Mus musculus; murine blood diluted 1 in 15, A23187 stimulated; single determination or average; mark after value = form tested: ′ free base, ″ hydrochloride, ^ formate; read-out: IC50
Method in brief: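 Heparinized blood from CD-1 mice was preincubated with compound for 15 min at 37° C, then stimulated with calcium ionophore A23187 (final 7 μg/mL) for 30 min. Centrifugation stopped the reaction, and LTB4 in the supernatant was measured by enzyme immunoassay. Values are single determinations or means of two or more.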

[3] = molecular target: T1, recombinant human LTA4 hydrolase (rhLTA4H) (Homo sapiens, UniProt P09960); test: Recombinant human LTA4 hydrolase assay for LTA4 hydrolase inhibitor activity; type: biochemical
T1 construct: made in house; host or cells: Spodoptera frugiperda (Sf-9) cells, baculovirus (pFastBac1)
T1 sequence (P09960 1-611): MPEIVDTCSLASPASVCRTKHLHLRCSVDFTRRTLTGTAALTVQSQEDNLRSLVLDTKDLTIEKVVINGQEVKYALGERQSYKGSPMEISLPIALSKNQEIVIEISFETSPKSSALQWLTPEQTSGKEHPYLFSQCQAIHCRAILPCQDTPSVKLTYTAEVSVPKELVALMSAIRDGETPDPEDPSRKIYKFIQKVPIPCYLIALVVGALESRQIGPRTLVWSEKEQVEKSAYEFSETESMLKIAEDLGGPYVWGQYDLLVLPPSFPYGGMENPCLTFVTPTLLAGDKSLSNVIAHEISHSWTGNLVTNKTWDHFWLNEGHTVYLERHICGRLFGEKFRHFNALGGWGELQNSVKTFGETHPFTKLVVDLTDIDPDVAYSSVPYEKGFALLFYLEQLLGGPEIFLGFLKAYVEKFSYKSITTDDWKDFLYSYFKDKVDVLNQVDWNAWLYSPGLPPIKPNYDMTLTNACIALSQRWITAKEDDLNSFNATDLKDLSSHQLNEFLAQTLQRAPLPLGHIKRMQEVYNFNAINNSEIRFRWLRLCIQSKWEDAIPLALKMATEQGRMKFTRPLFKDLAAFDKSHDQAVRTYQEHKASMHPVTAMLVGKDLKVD
Method in brief: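 Baculovirus/Sf-9-expressed human LTA4H (10 ng) was preincubated 10 min at rt with compound in assay buffer (10% DMSO in compound dilution), then reacted 30 min at rt with LTA4 free acid made from its methyl ester. LTB4 produced was measured by ELISA after dilution; IC50 from non-linear regression, single or averaged determinations.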

[4] = system: arachidonic acid-induced neutrophil influx in murine ear tissue; test: Murine arachidonic acid-induced inflammation model: neutrophil influx (myeloperoxidase) in ear; type: in vivo, Balb/c mice; conditions: Mus musculus; 30 mg/kg oral gavage, 60 min before topical arachidonic acid, ear biopsy after 3 h; percent inhibition of neutrophil influx; read-out: % Inh. MPO
Procedure: as §1, §2
Neutrophil influx was quantified by measuring the activity of myeloperoxidase (MPO), a neutrophil-specific enzyme. […] Debris was removed by centrifugation at 14000×g for 10 min. […] The microtiter plate contents were held at room temperature until the sample with the highest concentration of MPO reached an absorbance value of 0.4 at 650 nm. The reaction was stopped by addition of 50 μL 1 M H2SO4 to each sample well, and the myeloperoxidase activity in each sample was determined from the absorbance at […]. The background value from the right ear, treated only with acetone, was subtracted from that for the left ear, treated with arachidonic acid in acetone, for each animal. The percent inhibition of neutrophil influx (% Inh. MPO) by compounds of the invention was determined by comparison to animals treated identically, except that the solution administered by oral gavage was devoid of inhibitor compound. All compounds were assayed in their free base form.

[5] = rhLTA4H, LTB4 by immunoassay, single determination or average of two or more, mark after value = form tested: ′ free base, ″ hydrochloride, ^ formate, read-out: IC50

| Compound | IC50 [2] [nM] | IC50 [3, 5] [nM] | inhibition at 30 mg/kg [1] [%] | inhibition at 30 mg/kg [4] [%] | IC50 [3] [nM] |
| --- | --- | --- | --- | --- | --- |
| NC(=O)C1CCN(Cc2cc3ccc(Oc4nc5ncccc5s4)cc3o2)CC1 [Example 116, 1-[6-(Thiazolo[4,5-b]pyridin-2-yloxy)-benzofuran-2-ylmethyl]-piperidine-4-carboxylic acid amide] | 55 | 44 | 76 | 66 |  |
| NC(=O)N1C[C@H]2C[C@@H]1CN2Cc1coc2cc(Oc3nc4ncccc4s3)ccc12 [Example 160, (1R,4R)-5-[6-(Thiazolo[4,5-b]pyridin-2-yloxy)-benzofuran-3-ylmethyl]-2,5-diaza-bicyclo[2.2.1]heptane-2-carboxylic acid amide] | 49 | 5 | 90 | 77 |  |
| CC(=O)N1C[C@@H]2CC[C@H]1CN2Cc1cc2cc(Oc3nc4ncccc4s3)ccc2o1 [Example 169, meso-1-{5-[5-(Thiazolo[4,5-b]pyridin-2-yloxy)-benzofuran-2-ylmethyl]-2,5-diaza-bicyclo[2.2.2]oct-2-yl}-ethanone] | 23 | 3 | 85 | 92 |  |
| CC(=O)N[C@@H]1C[C@H]2CC[C@@H](C1)N2Cc1coc2cc(Oc3nc4ncccc4s3)ccc12 [Example 208, meso-exo-N-{8-[6-(Thiazolo[4,5-b]pyridin-2-yloxy)-benzofuran-3-ylmethyl]-8-aza-bicyclo[3.2.1]oct-3-yl}-acetamide] | 24 |  | 93 | 92 | 1 |
| c1cnc2nc(Oc3ccc4c(CN5C[C@@H]6C[C@H]5CO6)coc4c3)sc2c1 [Example 158, (1S,4S)-2-[3-(2-Oxa-5-aza-bicyclo[2.2.1]hept-5-ylmethyl)-benzofuran-6-yloxy]-thiazolo[4,5-b]pyridine] | 32 | 6 | 95 | 87 |  |
| CC(=O)N[C@H]1C[C@H]2CC[C@@H](C1)N2Cc1cc2ccc(Oc3nc4ncccc4s3)cc2s1 [Example 135, meso-endo-N-{8-[6-(Thiazolo[4,5-b]pyridin-2-yloxy)-benzo[b]thiophen-2-ylmethyl]-8-aza-bicyclo[3.2.1]oct-3-yl}-acetamide] | 110 | 3 | 85 | 42 |  |
| CC(=O)N[C@H]1C[C@H]2CC[C@@H](C1)N2C(=O)c1coc2cc(Oc3nc4ncccc4s3)ccc12 [Example 369, meso-endo-N-{8-[6-(Thiazolo[4,5-b]pyridin-2-yloxy)-benzofuran-3-carbonyl]-8-aza-bicyclo[3.2.1]oct-3-yl}-acetamide] | 100 | 19 | 58 | 76 |  |
| CC(=O)N[C@@H]1C[C@H]2CC[C@@H](C1)N2Cc1cc2cc(Oc3nc4ncccc4s3)ccc2o1 [Example 104, meso-exo-N-{8-[5-(Thiazolo[4,5-b]pyridin-2-yloxy)-benzofuran-2-ylmethyl]-8-aza-bicyclo[3.2.1]oct-3-yl}-acetamide] | 16 | 10 | 83 | 92 |  |
| c1cnc2sc(Oc3ccc4c(CN5CCOCC5)c[nH]c4c3)nc2n1 [Example 56, 2-(3-Morpholin-4-ylmethyl-1H-indol-6-yloxy)-thiazolo[4,5-b]pyrazine] | 290 | 81 | 40 | 45 |  |
| O=C(O)C1CCN(Cc2cc3ccc(Oc4nc5ccccc5s4)cc3o2)CC1 [Example 77, 1-[6-(Benzothiazol-2-yloxy)-benzofuran-2-ylmethyl]-piperidine-4-carboxylic acid] | 30 | 35 | 85 | 77 |  |
| Fc1cnc2nc(Oc3ccc4c(CN5CCOCC5)c[nH]c4c3)sc2c1 [Example 58, 6-Fluoro-2-(3-morpholin-4-ylmethyl-1H-indol-6-yloxy)-thiazolo[4,5-b]pyridine] | 250 | 10 | 84 | 57 |  |
| CC(=O)N1CCC2(CCN(Cc3cc4cc(Oc5nc6ncccc6s5)ccc4o3)CC2)CC1 [Example 167, 1-{9-[5-(Thiazolo[4,5-b]pyridin-2-yloxy)-benzofuran-2-ylmethyl]-3,9-diaza-spiro[5.5]undec-3-yl}-ethanone] | 220 | 88 | 78 | 77 |  |
| CN(Cc1ccncc1)Cc1coc2cc(Oc3nc4ncccc4s3)ccc12 [Example 177, Methyl-pyridin-4-ylmethyl-[6-(thiazolo[4,5-b]pyridin-2-yloxy)-benzofuran-3-ylmethyl]-amine] | 110 | 13 | 70 | 12 |  |

The next lines start with results.

| IC50 [2] [nM] | IC50 [3, 5] [nM] | Compound | inhibition at 30 mg/kg [1] [%] | inhibition at 30 mg/kg [4] [%] | IC50 [3] [nM] |
| --- | --- | --- | --- | --- | --- |
| 12 | 4 | OCC1CCN(Cc2coc3cc(Oc4nc5ncccc5s4)ccc23)CC1 [Example 269, {1-[6-(Thiazolo[4,5-b]pyridin-2-yloxy)-benzofuran-3-ylmethyl]-piperidin-4-yl}-methanol] | 74 | 92 |  |
| 61 | 20 | CC(=O)N1C[C@H]2C[C@@H]1CN2C(=O)c1cc2cc(Oc3nc4ncccc4s3)ccc2o1 [Example 366, (1R,4R)-1-{5-[5-(Thiazolo[4,5-b]pyridin-2-yloxy)-benzofuran-2-carbonyl]-2,5-diaza-bicyclo[2.2.1]hept-2-yl}-ethanone] | 78 | 50 |  |
| 47 | 30 | CC(=O)N1CCCN(C(=O)c2coc3cc(Oc4nc5ncccc5s4)ccc23)CC1 [Example 372, 1-{4-[6-(Thiazolo[4,5-b]pyridin-2-yloxy)-benzofuran-3-carbonyl]-[1,4]diazepan-1-yl}-ethanone] | 62 | 53 |  |
| 88 | 22 | CC(=O)N1C[C@@H]2C[C@H]1CN2CCc1coc2cc(Oc3nc4ncccc4s3)ccc12 [Example 258, (1S,4S)-1-(5-{2-[6-(Thiazolo[4,5-b]pyridin-2-yloxy)-benzofuran-3-yl]-ethyl}-2,5-diaza-bicyclo[2.2.1]hept-2-yl)-ethanone] | 70.9 | 72 |  |
| 13 | 11 | CC(=O)N1CC2CN(Cc3coc4cc(Oc5nc6ncccc6s5)ccc34)CC2C1 (stereo not drawn) [Example 211, meso-1-{5-[6-(Thiazolo[4,5-b]pyridin-2-yloxy)-benzofuran-3-ylmethyl]-hexahydro-pyrrolo[3,4-c]pyrrol-2-yl}-ethanone] | 92 | 86 |  |

Reference: US8399465B2, “Compounds with two fused bicyclic heteroaryl moieties as modulators of leukotriene A4 hydrolase” (Janssen Pharmaceutica NV, priority 2009, dated 2013)
